Like-named read-outs stand apart in the source and are kept apart here.
What was measured:
HIV-1 strain 92HT599 = experiment: Antiviral activity against HIV-1 strain 92HT599 in MT2 cells (p24 estimation); format: cell-based; details: HIV-1 92HT599, ~96 hours
Method in brief: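 Percent inhibition versus vehicle controls came from p24 quantified in supernatant aliquots. These were taken after ~96 h incubation of compound (DMSO ≤1%) with MT2 cells infected at 10 TCID50/30,000 cells.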

HIV-1 pNL4-3 WT = experiment: Antiviral activity against pNL4-3/WT strain in MT4 cells (p24 estimation); format: cell-based; details: Human immunodeficiency virus 1, MT4, 96 h, read-out: pNL4-3 WT IC50
Method in brief: (§1)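 MT4 cells infected with HIV-1 pNL4-3 WT or V7A (defined TCID50, 1.5 h, 37° C), plated at 3×10^4 cells/well with test compound, final DMSO ≤1%. After 4 days' culture, p24 in supernatant aliquots measured by kit.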

HIV-1 pNL4-3 V7A = experiment: Antiviral activity against pNL4-3/V7A strain in MT4 cells (p24 estimation); format: cell-based; details: Human immunodeficiency virus 1, MT4, 96 h, read-out: pNL4-3 V7A IC50
Method in brief: as §1

[1] = Single dose oral pharmacokinetic study; format: in vivo; details: mouse; Mice oral PK @30 mg/kg; plasma
Description: Example 80: Evaluation of Compounds Single Dose Oral Pharmacokinetic Study
The test item was administered through oral route to animals (rat/mice) at 30 mg/kg dose in a suitable vehicle (10% Solutol+20% PEG) at 10 ml/kg dose volume. Blood samples (˜50 μL at each time point) were collected from retro-orbital plexus using K3 EDTA as anticoagulant in eppendorf tubes at defined time intervals 30 minutes, 1 hour, 2 hour, 4 hour, 8 hour, 24 hour & 48 hour under light ether anaesthesia. The samples were centrifuged at 3500×g to separate plasma and stored at −80° C. until analysis. Plasma 25 μl for Mice were processed as per described in sample preparation.
Standard solutions of the test compound 1 mg/mL solutions were prepared in DMSO and further dilutions were made in methanol. The calibration curve samples for LCMSMS analysis were prepared by spiking 25 μl of Mice plasma with 2.5 μl and of the appropriate working standard solution to obtain final concentrations 0.078, 0.156, 0.312, 0.625, 1.25, 2.5, 5, 10, 20 & 40 μg/ml. To the test compound plasma extraction was carried out using Acetonitrile precipitation. After reconstitution with solvent (50% Acetonitrile in Buffer) samples were analyzed by LCMSMS to get the concentrations to calculate PK Parameters.

[2] = Human immunodeficiency virus 1, 0% serum binding assay, read-out: IC50 0% serum
[3] = Human immunodeficiency virus 1, 40% serum binding assay, read-out: IC50 40% serum

| SMILES | IC50 (HIV-1 strain 92HT599; [2]) [nM] | IC50 (HIV-1 strain 92HT599; [3]) [nM] | IC50 (HIV-1 pNL4-3 WT) [nM] | IC50 (HIV-1 pNL4-3 V7A) [nM] | AUC(0-t) [1] [µg·h/mL] | Cmax [1] [ng/mL] |
| --- | --- | --- | --- | --- | --- | --- |
| CC(C)C1=C2[C@H]3CC[C@@H]4[C@@]5(C)CC[C@H](OC(=O)[C@H]6C[C@@H](C(=O)O)C6(C)C)C(C)(C)[C@@H]5CC[C@@]4(C)[C@]3(C)CC[C@@]2(NC(=O)C(C)(C)NC(=O)c2csc(N)n2)CC1=O [Example 55, (1R,3S)-3-((((3aR,5aR,5bR,7aR,9S,11aR,11bR,13aS)-3a-(2-(2-aminothiazole-4-carboxamido)-2-methylpropanamido)-1-isopropyl-5a,5b,8,8,11a-pentamethyl-2-oxo-3,3a,4,5,5a,5b,6,7,7a,8,9,10,11,11a,11b,12,13,13a-octadecahydro-2H-cyclopenta[a]chrysen-9-yl)oxy)carbonyl)-2,2-dimethylcyclobutane-1-carboxylic acid] | 3.01 to 10 | 50 to 200 | > 10 | > 50 | – | – |
| Cc1nnc(-c2ccc(C(=O)NC(C)(C)C(=O)N[C@@]34CC[C@]5(C)[C@H](CC[C@@H]6[C@@]7(C)CC[C@H](OC(=O)[C@H]8C[C@@H](C(=O)O)C8(C)C)C(C)(C)[C@@H]7CC[C@]65C)C3=C(C(C)C)C(=O)C4)cc2)o1 [Example 56, (1R,3S)-3-((((3aR,5aR,5bR,7aR,9S,11aR,11bR,13aS)-1-isopropyl-5a,5b,8,8,11a-pentamethyl-3a-(2-methyl-2-(4-(5-methyl-1,3,4-oxadiazol-2-yl)benzamido)propanamido)-2-oxo-3,3a,4,5,5a,5b,6,7,7a,8,9,10,11,11a,11b,12,13,13a-octadecahydro-2H-cyclopenta[a]chrysen-9-yl)oxy)carbonyl)-2,2-dimethylcyclobutane-1-carboxylic acid] | < 3 | < 50 | 5.01 to 10 | 10 to 50 | – | – |
| CC(C)C1=C2[C@H]3CC[C@@H]4[C@@]5(C)CC[C@H](OC(=O)[C@H]6C[C@@H](C(=O)O)C6(C)C)C(C)(C)[C@@H]5CC[C@@]4(C)[C@]3(C)CC[C@@]2(NC(=O)C(C)(C)NC(=O)c2ccc(N3CCS(=O)(=O)CC3)cc2)CC1=O [Example 57, (1R,3S)-3-((((3aR,5aR,5bR,7aR,9S,11aR,11bR,13aS)-3a-(2-(4-(1,1-dioxidothiomorpholino)benzamido)-2-methylpropanamido)-1-isopropyl-5a,5b,8,8,11a-pentamethyl-2-oxo-3,3a,4,5,5a,5b,6,7,7a,8,9,10,11,11a,11b,12,13,13a-octadecahydro-2H-cyclopenta[a]chrysen-9-yl)oxy)carbonyl)-2,2-dimethylcyclobutane-1-carboxylic acid] | < 3 | < 50 | 5.01 to 10 | 10 to 50 | – | – |
| CC(C)C1=C2[C@H]3CC[C@@H]4[C@@]5(C)CC[C@H](OC(=O)[C@H]6C[C@@H](C(=O)O)C6(C)C)C(C)(C)[C@@H]5CC[C@@]4(C)[C@]3(C)CC[C@@]2(NC(=O)C(C)(C)NC(=O)c2ccc(CN3CCS(=O)(=O)CC3)cc2)CC1=O [Example 58, (1R,3S)-3-((((3aR,5aR,5bR,7aR,9S,11aR,11bR,13aS)-3a-(2-(4-((1,1-dioxidothiomorpholino)methyl)benzamido)-2-methylpropanamido)-1-isopropyl-5a,5b, 8,8,11a-pentamethyl-2-oxo-3,3a,4,5,5a,5b,6,7,7a,8,9,10,11,11a,11b,12,13,13a-octalecahydro-2H-cyclopenta[a]chrysen-9-yl)oxy)carbonyl)-2,2-dimethylcyclobutane-1-carboxylic acid] | < 3 | < 50 | 5.01 to 10 | > 50 | – | – |
| Cc1ccc(C(=O)NC(C)(C)C(=O)N[C@@]23CC[C@]4(C)[C@H](CC[C@@H]5[C@@]6(C)CC[C@H](OC(=O)[C@H]7C[C@@H](C(=O)O)C7(C)C)C(C)(C)[C@@H]6CC[C@]54C)C2=C(C(C)C)C(=O)C3)cn1 [Example 61, (1R,3S)-3-((((3aR,5aR,5bR,7aR,9S,11aR,11bR,13aS)-1-isopropyl-5a,5b,8,8,11a-pentamethyl-3a-(2-methyl-2-(6-methylnicotinamido)propanamido)-2-oxo-3,3a,4,5,5a,5b,6,7,7a,8,9,10,11,11a,11b,12,13,13a-octadecahydro-2H-cyclopenta[a]chrysen-9-yl)oxy)carbonyl)-2,2-dimethylcyclobutane-1-carboxylic acid] | < 3 | < 50 | < 5 | 10 to 50 | – | – |
| CC(C)C1=C2[C@H]3CC[C@@H]4[C@@]5(C)CC[C@H](OC(=O)[C@H]6C[C@@H](C(=O)O)C6(C)C)C(C)(C)[C@@H]5CC[C@@]4(C)[C@]3(C)CC[C@@]2(NC(=O)C(C)(C)NS(C)(=O)=O)CC1=O [Example 63, sodium (1R,3S)-3-((((3aR,5aR,5bR,7aR,9S,11aR,11bR,13aS)-1-isopropyl-5a,5b,8,8,11a-pentamethyl-3a-(2-methyl-2-(methylsulfonamido)propanamido)-2-oxo-3,3a,4,5,5a,5b,6,7,7a,8,9,10,11,11a,11b,12,13,13a-octadecahydro-2H-cyclopenta[a]chrysen-9-yl)oxy)carbonyl)-2,2-dimethylcyclobutane-1-carboxylate] | < 3 | < 50 | > 10 | > 50 | – | – |
| CCOC(=O)NC(C)(C)C(=O)N[C@@]12CC[C@]3(C)[C@H](CC[C@@H]4[C@@]5(C)CC[C@H](OC(=O)[C@H]6C[C@@H](C(=O)O)C6(C)C)C(C)(C)[C@@H]5CC[C@]43C)C1=C(C(C)C)C(=O)C2 [Example 64] | < 3 | < 50 | 5.01 to 10 | > 50 | – | – |
| CC(C)C1=C2[C@H]3CC[C@@H]4[C@@]5(C)CC[C@H](OC(=O)[C@H]6C[C@@H](C(=O)O)C6(C)C)C(C)(C)[C@@H]5CC[C@@]4(C)[C@]3(C)CC[C@@]2(NC(=O)C(C)(C)NS(=O)(=O)c2ccc(Cl)cc2)CC1=O [Example 65, (1R,3S)-3-((((3aR,5aR,5bR,7aR,9S,11aR,11bR,13aS)-3a-(2-((4-chlorophenyl)sulfonamido)-2-methylpropanamido)-1-isopropyl-5a,5b,8,8,11a-pentamethyl-2-oxo-3,3a,4,5,5a,5b,6,7,7a,8,9,10,11,11a,11b,12,13,13a-octadecahydro-2H-cyclopenta[a]chrysen-9-yl)oxy)carbonyl)-2,2-dimethylcyclobutane-1-carboxylic acid] | < 3 | < 50 | > 10 | > 50 | 145 | 7380 |
| CC(C)C1=C2[C@H]3CC[C@@H]4[C@@]5(C)CC[C@H](OC(=O)[C@H]6C[C@@H](C(=O)O)C6(C)C)C(C)(C)[C@@H]5CC[C@@]4(C)[C@]3(C)CC[C@@]2(NC(=O)C(C)(C)NC(=O)c2ccc(Cl)cn2)CC1=O [Example 70, (1R,3S)-3-((((3aR,5aR,5bR,7aR,9S,11aR,11bR,13aS)-3a-(2-(5-chloropicolinamido)-2-methylpropanamido)-1-isopropyl-5a,5b,8,8,11a-pentamethyl-2-oxo-3,3a,4,5,5a,5b,6,7,7a,8,9,10,11,11a,11b,12,13,13a-octadecahydro-2H-cyclopenta[a]chrysen-9-yl)oxy)carbonyl)-2,2-dimethylcyclobutane-1-carboxylic acid] | < 3 | < 50 | < 5 | < 10 | – | – |
| Cc1cccc(NC(=O)NC(C)(C)C(=O)N[C@@]23CC[C@]4(C)[C@H](CC[C@@H]5[C@@]6(C)CC[C@H](OC(=O)[C@H]7C[C@@H](C(=O)O)C7(C)C)C(C)(C)[C@@H]6CC[C@]54C)C2=C(C(C)C)C(=O)C3)n1 [Example 72, (1R,3S)-3-((((3aR,5aR,5bR,7aR,9S,11aR,11bR,13aS)-1-isopropyl-5a,5b,8,8,11a-pentamethyl-3a-(2-methyl-2-(3-(6-methylpyridin-2-yl)ureido)propanamido)-2-oxo-3,3a,4,5,5a,5b,6,7,7a,8,9,10,11,11a,11b,12,13,13a-octadecahydro-2H-cyclopenta[a]chrysen-9-yl)oxy)carbonyl)-2,2-dimethylcyclobutane-1-carboxylic acid] | < 3 | < 50 | < 5 | > 50 | – | – |

— patent publication US11034718B2, “C-3 novel triterpenone with C-17 reverse amide derivatives as HIV inhibitors” (HETERO LABS LIMITED, priority 2015, dated 2021)
